Laboratory results taken from patent US20240165054A1, “TREATMENT” (Verona Pharma PLC, priority 2022, published 2024).

Key:
[1] = tested on: patients with moderate to severe COPD; experiment: Clinical study of nebulised ensifentrine vs placebo in COPD: moderate/severe COPD exacerbations; assay type: in vivo, human
Procedure: (§1) A clinical study was conducted to determine the efficacy of ensifentrine in treating COPD compared with placebo. Ensifentrine was administered by nebuliser at a dose of 3 mg twice daily (BID) for 24 weeks. The study was a multi-centre, randomized, double-blind, parallel-group, placebo-controlled trial with around 800 patients and 5:3 randomization.
(§2) The study population included patients aged 40-80 years with moderate to severe COPD (FEV1 30%-70% p.n., FEV1/forced vital capacity [FVC] ratio <0.7, with mMRC≥2). The randomization stratified (a) the use of stable background maintenance LAMA or LABA therapy use (approx. 50%. yes or no) and (b) cigarette smoking (current or former). Inhaled corticosteroid (ICS) maintenance therapy was permitted in up to 20% of patients under certain provisions.
(§3) The primary endpoint of the study was change from baseline in average FEV1 area under the curve (AUC)0-12 h post-dose at week 12. Secondary endpoints of the study included: peak FEV1 over 4 hours post-dose at Week 12; morning trough FEV1 at Week 12; and other endpoints including moderate/severe COPD exacerbations frequency and time to first moderate or severe COPD exacerbation over 24 Weeks.
Exacerbations were defined as worsening of 2 or more major symptoms (dyspnea, sputum volume, and sputum purulence) or worsening of any 1 major symptom together with any 1 of the following minor symptoms: sore throat, colds, fever without other cause, and increased cough or wheeze for at least 2 consecutive days. COPD exacerbations were considered to be of moderate severity if treatment with systemic corticosteroids and/or antibiotics was required and were considered to be severe if hospitalization was required.
The investigational product and placebo were provided in 2.5 mL unit dose format in an ampule and administered via a nebuliser.

[2] = tested on: patients with moderate to severe COPD; experiment: Clinical study of nebulised ensifentrine vs placebo in COPD: lung function (FEV1); assay type: in vivo, human; settings: all subgroups of COPD patients in the study
Procedure: as §1, §2, §3
Baseline FEV1 is the mean of the two measurements taken before study medication on the day of first dosing, i.e. ≤40 minutes and just prior to dosing, pre-dose on day 1. […]

COPD patients = settings: vs placebo; population as given per drug; cited from earlier work

Row | Structure (SMILES) | Reduction in relative risk of moderate or severe COPD exacerbation vs placebo ([1]; 3 mg BID by nebuliser, over 24 weeks, including 52% of patients on background bronchodilator medications) | Reduction in the frequency of COPD exacerbations compared with other treatments ([1]; comparison with literature treatments of Table 4) | Time to first exacerbation / frequency of COPD exacerbations (conclusion) ([1]; over 24 weeks) | Improvement in lung function in subgroups [2] | Rate Reduction (=1-Rate Ratio) of COPD exacerbations (COPD patients)
1 | COc1cc2c(cc1OC)-c1c/c(=N\c3c(C)cc(C)cc3C)n(CCNC(N)=O)c(=O)n1CC2 [Ensifentrine, N-(2-{(2E)-9,10-dimethoxy-4-oxo-2-[(2,4,6-trimethylphenyl)imino]-6,7-dihydro-2H-pyrimido[6,1-α]isoquinolin-3(4H)-yl}ethyl)urea] | approximately 40% | greater reduction in the frequency of COPD exacerbations than other treatments | particularly effective in increasing the time to first exacerbation | improvement in lung function with ensifentrine that was statistically significant | 
2 | CS(=O)(=O)Nc1ccc(C(=O)O[C@@H](Cc2c(Cl)c[n+]([O-])cc2Cl)c2ccc(OC(F)F)c(OCC3CC3)c2)cc1OCC1CC1 [Tanimilast] |  |  |  |  | 13-28% all doses
